Experimental data: patent publication US7799809B2, “Carboxamide compounds and their use as calpain inhibitors” (Abbott GmbH & Co. KG, priority 2006, dated 2010)

Assays:
Assay type in all cases: biochemical
[1] = molecular target: T1, cathepsin B (Homo sapiens, UniProt P07858); assay: Cathepsin B enzyme inhibition in vitro (kinetic fluorescence assay); settings: cathepsin B isolated from human liver vs calpain I
T1 construct: cathepsin B—isolated from human liver (Calbiochem #219362); purchased Calbiochem 219362; host or cells: human liver (tissue-derived)
How it was run: (§1)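 Inhibition is measured at room temperature in cysteine-containing MES buffer, pH 6.0, by continuous fluorescence at 460 nm. Cathepsin S (0.5 nM) uses 20 μM Z-Val-Val-Arg-AMC; L (1 nM) and B (0.25 nM) use Z-Phe-Arg-AMC at 2 and 100 μM respectively.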

[2] = molecular target: T2, cathepsin K (Homo sapiens, UniProt P43235); assay: Cathepsin K enzyme inhibition in vitro (kinetic fluorescence assay); settings: cathepsin K activated from recombinant human procathepsin K vs calpain I
T2 construct: purchased Calbiochem 342001; host or cells: E. coli
T2 sequence (P43235 115-329): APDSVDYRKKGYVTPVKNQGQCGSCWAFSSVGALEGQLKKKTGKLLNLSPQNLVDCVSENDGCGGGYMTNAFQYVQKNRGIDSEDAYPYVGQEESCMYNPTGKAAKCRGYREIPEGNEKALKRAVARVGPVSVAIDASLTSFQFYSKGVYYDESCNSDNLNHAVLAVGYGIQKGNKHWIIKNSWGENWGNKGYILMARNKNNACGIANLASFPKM
Procedure: The following solutions and buffers were employed: • HBS (for 40 ml): 800 μl M HEPES; 2.16 ml 100 mM KCl; 4.8 ml 1M NaCl; 3.59 ml 5% glucose; 60 μl μM MgSO4; 400 μl 100 mM Na pyruvate, 28.19 ml water; pH 7.2-7.5. • lysis buffer (for 20 ml): 400 μl M Tris pH 8.2; 2.74 ml 1M NaCl; 520 μl 0.5M EDTA; 2 ml 10% triton X-100; 0.8 ml (=1:25) CompletePlus (1 tablet/2 ml H2O); 200 μl 100 mM Pefabloc; 13.34 ml water, pH 8.2. • TBST (10×) (for 1 l): 100 mM Tris (12.1 g); 1.5M NaCl (87 g); 1% Tween 20 (10 g), adjusted to pH 8. I Enzyme Inhibition In Vitro: • Testing for blockade of the corresponding enzymic activities was carried out by means of kinetic fluorescence assays (excitation 390 nm, emission 460 nm). • Apparent Ki values were calculated from the experimentally determined IC50 values by the Cheng-Prussoff relation assuming a reversible competitive enzyme inhibition. The Km values of the substrates used under the assay conditions indicated above were: 90 μM (Z-Phe-Arg-AMC, cathepsin B), 10 μM (Z-Gly-Pro-Arg-AMC, cathepsin K), 2 μM (Z-Phe-Arg-AMC, cathepsin L), and 30 μM (Z-Val-Val-Arg-AMC, cathepsin S). • The indicated Ki values are averages of the inhibition constants calculated on the basis of 2 to 4 independent dose-effect plots.
The following assays were used: • 1. Calpain I: • 20 nM calpain-I—isolated from human erythrocytes (Calbiochem #208713), 100 μM Suc-Leu-Tyr-AMC (Bachem #1-1355) as substrate in buffer with 62 mM imidazole, 0.3 mM CaCl2, 0.10% CHAPS, 0.05% BSA, 1 mM DTT at pH 7.3 and room temperature. • 2. Cathepsin B: • 0.25 nM cathepsin B—isolated from human liver (Calbiochem #219362), 100 μM Z-Phe-Arg-AMC (Bachem #I-1160) as substrate 50 mM MES, 2 mM EDTA, 0.05% Brij 35, 2.5 mM L-cysteine, pH 6.0, room temperature. • 3. Cathepsin K: • 3 nM cathepsin K—activated from recombinant human procathepsin K from E. coli (Calbiochem #342001), 10 μM Z-Gly-Pro-Arg-AMC (Biomol #P-142) as substrate in 50 mM MES, 2 mM EDTA, 0.05% Brij 35, 2.5 mM L-cysteine, pH 6.0, room temperature. • 4. Cathepsin L: • 1 nM cathepsin L—isolated from human liver (Calbiochem #219402), 2 μM Z-Phe-Arg-AMC (Bachem #1-1160) as substrate in 50 mM MES, 2 mM EDTA, 0.05% Brij 35, 2.5 mM L-cysteine, pH 6.0, room temperature. • 5. Cathepsin S: • 0.5 nM recombinant human cathepsin S from E. coli (Calbiochem #219343), 20 μM Z-Val-Val-Arg-AMC (Bachem #1-1540) as substrate in 50 mM MES, 2 mM EDTA, 0.05% Brij 35, 2.5 mM L-cysteine, pH 6.0, room temperature. • The results of the in vitro determination are indicated in Table 1. The following abbreviations are used in Table 1: • The “Calpain activity” column, ++ stands for a calpain Ki (Ki(calpain)) of ≦40 nM and + means: 40 nM<Ki(Calpain)≦100 nM. • The “Sel. cat. B” column indicates the Ki(cathepsin B)/Ki(calpain) ratio. In this connection, ++ means a Ki(cathepsin B)/Ki(calpain) ratio of ≧30 and + means 10≦Ki(cathepsin B)/Ki(calpain)<30. • The “Sel. cat. K” column indicates the Ki(cathepsin K)/Ki(calpain) ratio. In this connection, ++ means a Ki(cathepsin K)/Ki(calpain) ratio of ≧30 and + means 10≦Ki(cathepsin K)/Ki(calpain)<30. • The “Sel. cat. L” column indicates the Ki(cathepsin L)/Ki(calpain) ratio. In this connection, ++ means a Ki(cathepsin L)/Ki(calpain) ratio of ≧50 and + means 30≦Ki(cathepsin L)/Ki(calpain)<50. • The “Sel. cat. S” column indicates the Ki(cathepsin S)/Ki(calpain) ratio. In this connection, ++ means a Ki(cathepsin S)/Ki(calpain) ratio of ≧100 and + means 50≦Ki(cathepsin S)/Ki(calpain)<100.

[3] = molecular target: T3, cathepsin L (Homo sapiens, UniProt P07711); assay: Cathepsin L enzyme inhibition in vitro (kinetic fluorescence assay); settings: cathepsin L isolated from human liver vs calpain I
T3 construct: cathepsin L—isolated from human liver (Calbiochem #219402); purchased Calbiochem 219402; host or cells: human liver (tissue-derived)
T3 sequence (P07711 114-333): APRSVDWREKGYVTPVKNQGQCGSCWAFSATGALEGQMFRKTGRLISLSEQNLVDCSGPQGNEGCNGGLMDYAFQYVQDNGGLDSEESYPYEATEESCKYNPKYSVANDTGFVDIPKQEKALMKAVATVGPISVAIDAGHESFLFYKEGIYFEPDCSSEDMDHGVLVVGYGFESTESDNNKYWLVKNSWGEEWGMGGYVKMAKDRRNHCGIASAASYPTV
How it was run: as §1

[4] = molecular target: T4, cathepsin S (Homo sapiens, UniProt P25774); assay: Cathepsin S enzyme inhibition in vitro (kinetic fluorescence assay); settings: recombinant human cathepsin S vs calpain I
T4 construct: purchased Calbiochem 219343; host or cells: E. coli
T4 sequence (P25774 115-331): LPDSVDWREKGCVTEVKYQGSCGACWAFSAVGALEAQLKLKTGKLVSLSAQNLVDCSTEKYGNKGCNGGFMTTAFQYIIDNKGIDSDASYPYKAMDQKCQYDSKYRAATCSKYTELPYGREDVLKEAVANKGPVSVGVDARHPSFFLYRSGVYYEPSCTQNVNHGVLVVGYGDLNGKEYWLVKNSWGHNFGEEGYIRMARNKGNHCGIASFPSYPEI
How it was run: as §1

Structure (SMILES)	Sel cat. B: Ki(cathepsin B)/Ki(calpain) ratio [1]	Sel cat. K: Ki(cathepsin K)/Ki(calpain) ratio [2]	Sel cat. L: Ki(cathepsin L)/Ki(calpain) ratio [3]	Sel cat. S: Ki(cathepsin S)/Ki(calpain) ratio [4]
NC(=O)C(=O)C(Cc1ccccc1)NC(=O)c1cccnc1-n1cc2c(n1)-c1cccc(Cl)c1OC2 (stereo not drawn) [Example 175, N-[3-Amino-2,3-dioxo-1-(phenylmethyl)propyl]-2-(6-chlorochromeno[4,3-c]pyrazol-2(4H)-yl)pyridine-3-carboxamide]	++ (++ means a Ki(cathepsin B)/Ki(calpain) ratio of ≧30)	++ (++ means a Ki(cathepsin K)/Ki(calpain) ratio of ≧30)	++ (++ means a Ki(cathepsin L)/Ki(calpain) ratio of ≧50)	++ (++ means a Ki(cathepsin S)/Ki(calpain) ratio of ≧100)
NC(=O)C(=O)C(Cc1ccccc1)NC(=O)c1cccnc1-n1cc2c(n1)-c1ccccc1OC2 (stereo not drawn) [Example 100, N-[3-Amino-2,3-dioxo-1-(phenylmethyl)propyl]-2-chromeno[4,3-c]pyrazol-2(4H)-ylpyridine-3-carboxamide]	+ (+ means 10≦Ki(cathepsin B)/Ki(calpain)<30)	++ (++ means a Ki(cathepsin K)/Ki(calpain) ratio of ≧30)	++ (++ means a Ki(cathepsin L)/Ki(calpain) ratio of ≧50)	++ (++ means a Ki(cathepsin S)/Ki(calpain) ratio of ≧100)
NC(=O)C(=O)C(Cc1ccccc1)NC(=O)c1cccnc1-n1cc2c(n1)-c1ccccc1CC2 (stereo not drawn) [Example 63, N-(3-Amino-1-benzyl-2,3-dioxopropyl)-2-(4,5-dihydro-2H-benzo[g]indazol-2-yl)nicotinamide]	+ (+ means 10≦Ki(cathepsin B)/Ki(calpain)<30)	+ (+ means 10≦Ki(cathepsin K)/Ki(calpain)<30)	++ (++ means a Ki(cathepsin L)/Ki(calpain) ratio of ≧50)	++ (++ means a Ki(cathepsin S)/Ki(calpain) ratio of ≧100)
NC(=O)C(=O)C(Cc1ccccc1)NC(=O)c1cccnc1-n1ccc(-c2ccccc2C(F)(F)F)n1 (stereo not drawn) [Example 72, N-(3-Amino-1-benzyl-2,3-dioxopropyl)-2-{3-[2-(trifluoromethyl)phenyl]-1H-pyrazol-1-yl}nicotinamide]	+ (+ means 10≦Ki(cathepsin B)/Ki(calpain)<30)	+ (+ means 10≦Ki(cathepsin K)/Ki(calpain)<30)	+ (+ means 30≦Ki(cathepsin L)/Ki(calpain)<50)	++ (++ means a Ki(cathepsin S)/Ki(calpain) ratio of ≧100)
COc1ccc(CC(NC(=O)c2cccnc2-n2ccc(-c3ccc(Cl)cc3Cl)n2)C(=O)C(N)=O)cc1 (stereo not drawn) [Example 98, N-(3-Amino-1-{[4-(methyloxy)phenyl]methyl}-2,3-dioxopropyl)-2-[3-(2,4-dichlorophenyl)-1H-pyrazol-1-yl]pyridine-3-carboxamide]	++ (++ means a Ki(cathepsin B)/Ki(calpain) ratio of ≧30)	++ (++ means a Ki(cathepsin K)/Ki(calpain) ratio of ≧30)	++ (++ means a Ki(cathepsin L)/Ki(calpain) ratio of ≧50)	++ (++ means a Ki(cathepsin S)/Ki(calpain) ratio of ≧100)
NC(=O)C(=O)C(Cc1ccccc1)NC(=O)c1cccnc1-n1ccc(-c2ccccc2OC(F)(F)F)n1 (stereo not drawn) [Example 124, N-[3-Amino-2,3-dioxo-1-(phenylmethyl)propyl]-2-(3-{2-[(trifluoromethyl)oxy]phenyl}-1H-pyrazol-1-yl)pyridine-3-carboxamide]	++ (++ means a Ki(cathepsin B)/Ki(calpain) ratio of ≧30)	++ (++ means a Ki(cathepsin K)/Ki(calpain) ratio of ≧30)	++ (++ means a Ki(cathepsin L)/Ki(calpain) ratio of ≧50)	++ (++ means a Ki(cathepsin S)/Ki(calpain) ratio of ≧100)
NC(=O)C(=O)C(Cc1ccc(OC(F)(F)F)cc1)NC(=O)c1cccnc1-n1ccc(-c2cccc(C(F)(F)F)c2)n1 (stereo not drawn) [Example 134, N-[3-Amino-2,3-dioxo-1-({4-[(trifluoromethyl)oxy]phenyl}methyl)propyl]-2-{3-[3-(trifluoromethyl)phenyl]-1H-pyrazol-1-yl}pyridine-3-carboxamide]	++ (++ means a Ki(cathepsin B)/Ki(calpain) ratio of ≧30)	++ (++ means a Ki(cathepsin K)/Ki(calpain) ratio of ≧30)	+ (+ means 30≦Ki(cathepsin L)/Ki(calpain)<50)	+ (+ means 50≦Ki(cathepsin S)/Ki(calpain)<100)
NC(=O)C(=O)C(Cc1ccccc1)NC(=O)c1cccnc1-n1ccc(-c2ccccc2)n1 (stereo not drawn) [Example 5, N-(3-Amino-1-benzyl-2,3-dioxopropyl)-2-(3-phenyl-1H-pyrazol-1-yl)nicotinamide]	+ (+ means 10≦Ki(cathepsin B)/Ki(calpain)<30)	+ (+ means 10≦Ki(cathepsin K)/Ki(calpain)<30)	++ (++ means a Ki(cathepsin L)/Ki(calpain) ratio of ≧50)	++ (++ means a Ki(cathepsin S)/Ki(calpain) ratio of ≧100)
NC(=O)C(=O)C(Cc1ccc(F)cc1)NC(=O)c1cccnc1-n1ccc(-c2ccccc2OC(F)(F)F)n1 (stereo not drawn) [Example 152, N-{3-Amino-1-[(4-fluorophenyl)methyl]-2,3-dioxopropyl}-2-(3-{2-[(trifluoromethyl)oxy]phenyl}-1H-pyrazol-1-yl)pyridine-3-carboxamide]	++ (++ means a Ki(cathepsin B)/Ki(calpain) ratio of ≧30)	++ (++ means a Ki(cathepsin K)/Ki(calpain) ratio of ≧30)	++ (++ means a Ki(cathepsin L)/Ki(calpain) ratio of ≧50)	++ (++ means a Ki(cathepsin S)/Ki(calpain) ratio of ≧100)
